Measurements reported in ChEMBL document CHEMBL5042487, “Design, synthesis, and biological activity evaluation of 2-(benzo[b]thiophen-2-yl)-4-phenyl-4,5-dihydrooxazole derivatives as broad-spectrum antifungal agents” (Eur J Med Chem, 2022).
Converted amounts (≈) assume the structure as drawn.

Assays:
Format in all cases: functional
[1] = tested on: Candida albicans; assay: Antifungal activity against Candida albicans SC5314 assessed as inhibition of fungal growth by NCCLS protocol based method
[2] = tested on: Candida albicans; assay: Antifungal activity against Candida albicans GIM 2.194 assessed as inhibition of fungal growth by NCCLS protocol based method
[3] = tested on: Candida tropicalis; assay: Antifungal activity against Candida tropicalis GIM 2.183 assessed as inhibition of fungal growth by NCCLS protocol based method
[4] = tested on: Cryptococcus neoformans; assay: Antifungal activity against Cryptococcus neoformans GIM 2.209 assessed as inhibition of fungal growth by NCCLS protocol based method
[5] = tested on: Aspergillus fumigatus; assay: Antifungal activity against Aspergillus fumigatus CGMCC 3.7795 assessed as inhibition of fungal growth by NCCLS protocol based method
[6] = tested on: Candida albicans; assay: Antifungal activity against fluconazole resistant Candida albicans CaR assessed as inhibition of fungal growth by NCCLS protocol based method
[7] = tested on: Candida albicans; assay: Antifungal activity against fluconazole and itraconazole resistant Candida albicans 17# assessed as inhibition of fungal growth by NCCLS protocol based method

| Structure (SMILES) | MIC [1] [µg/mL] | MIC [2] [µg/mL] | MIC [3] [µg/mL] | MIC [4] [µg/mL] | MIC [5] [µg/mL] | MIC [6] [µg/mL] | MIC [7] [µg/mL] |
| --- | --- | --- | --- | --- | --- | --- | --- |
| Fc1ccc(C2(Cn3cncn3)COC(c3ccc(-c4ccccc4F)cc3)=N2)cc1 (stereo not drawn) | < 0.03 | < 0.03 | 0.06 (≈ 0.144 µM) | > 64 | > 64 | – | – |
| FC(F)(F)Oc1ccc2cc(C3=NC(Cn4cncn4)(c4ccccc4)CO3)sc2c1 (stereo not drawn) | 0.06 (≈ 0.135 µM) | > 16 | > 16 | > 64 | > 64 | – | – |
| N#Cc1ccc2sc(C3=NC(Cn4cncn4)(c4ccccc4)CO3)cc2c1 (stereo not drawn) | > 16 | > 16 | > 16 | > 64 | > 64 | – | – |
| Fc1ccc(C2(Cn3cncn3)COC(c3cc4ccc(Br)cc4s3)=N2)c(F)c1 (stereo not drawn) | < 0.03 | < 0.03 | < 0.03 | 0.5 (≈ 1.05 µM) | > 64 | – | – |
| c1ccc(COc2ccc(C3=NC(Cn4cncn4)(c4ccccc4)CO3)cc2)cc1 (stereo not drawn) | > 16 | > 16 | > 64 | > 64 | > 64 | – | – |
| Clc1ccc2sc(C3=NC(Cn4cncn4)(c4ccccc4)CO3)cc2c1 (stereo not drawn) | 0.5 (≈ 1.27 µM) | > 16 | > 16 | > 64 | 32 (≈ 81 µM) | – | – |
| Fc1ccc(C2(Cn3cncn3)COC(c3cc4ccc(Br)cc4s3)=N2)cc1 (stereo not drawn) | < 0.03 | 0.06 (≈ 0.131 µM) | 0.13 (≈ 0.284 µM) | 1 (≈ 2.19 µM) | 2 (≈ 4.37 µM) | 0.5 (≈ 1.09 µM) | > 64 |
| c1ccc(C2(Cn3cncn3)COC(c3cc4ccccc4o3)=N2)cc1 (stereo not drawn) | > 16 | > 16 | > 64 | 2 (≈ 5.81 µM) | 8 (≈ 23.2 µM) | – | – |
| FC(F)(F)Oc1ccc2sc(C3=NC(Cn4cncn4)(c4ccccc4)CO3)cc2c1 (stereo not drawn) | < 0.03 | 0.06 (≈ 0.135 µM) | 0.25 (≈ 0.563 µM) | > 64 | > 64 | – | – |
| Fc1cc(F)cc(C2(Cn3cncn3)COC(c3cc4ccc(Br)cc4s3)=N2)c1 (stereo not drawn) | 0.06 (≈ 0.126 µM) | 0.06 (≈ 0.126 µM) | 0.125 (≈ 0.263 µM) | 0.25 (≈ 0.526 µM) | > 64 | – | – |
| Fc1ccc(C2(Cn3cncn3)COC(c3cc4ccc(F)cc4s3)=N2)cc1 (stereo not drawn) | 0.125 (≈ 0.315 µM) | 0.5 (≈ 1.26 µM) | 0.25 (≈ 0.631 µM) | 2 (≈ 5.05 µM) | 1 (≈ 2.52 µM) | > 64 | > 64 |
| c1ccc(-c2nnc(-c3ccc(C4=NC(Cn5cncn5)(c5ccccc5)CO4)cc3)o2)cc1 (stereo not drawn) | > 16 | > 16 | > 64 | > 64 | > 64 | – | – |
| Fc1cccc(C2(Cn3cncn3)COC(c3cc4ccc(Cl)cc4s3)=N2)c1 (stereo not drawn) | < 0.03 | < 0.03 | 4 (≈ 9.69 µM) | 0.25 (≈ 0.606 µM) | 1 (≈ 2.42 µM) | > 64 | > 64 |
| c1ccc(-c2ccc(C3=NC(Cn4cncn4)(c4ccccc4)CO3)s2)cc1 (stereo not drawn) | > 16 | > 16 | > 64 | 0.5 (≈ 1.29 µM) | 4 (≈ 10.3 µM) | – | – |
| c1ccc(C2(Cn3cncn3)COC(c3nc4ccccc4s3)=N2)cc1 (stereo not drawn) | > 16 | > 16 | > 64 | > 64 | > 64 | – | – |
| Fc1cccc(C2(Cn3cncn3)COC(c3cc4ccc(Br)cc4s3)=N2)c1 (stereo not drawn) | < 0.03 | < 0.03 | < 0.03 | 0.25 (≈ 0.547 µM) | 2 (≈ 4.37 µM) | > 64 | > 64 |
| CC(=O)N1CCN(c2ccc(C3=NC(Cn4cncn4)(c4ccccc4)CO3)cc2)CC1 (stereo not drawn) | > 16 | > 16 | > 64 | > 64 | > 64 | – | – |
| Brc1ccc2sc(C3=NC(Cn4cncn4)(c4ccccc4)CO3)cc2c1 (stereo not drawn) | > 16 | > 16 | > 16 | > 64 | > 64 | – | – |

| Structure (SMILES) | MIC [1] [µg/mL] | MIC [2] [µg/mL] | MIC [3] [µg/mL] | MIC [4] [µg/mL] | MIC [5] [µg/mL] | MIC [6] [µg/mL] | MIC [7] [µg/mL] |
| --- | --- | --- | --- | --- | --- | --- | --- |
| c1ccc(C2(Cn3cncn3)COC(c3ccc(-c4ccoc4)cc3)=N2)cc1 (stereo not drawn) | < 0.03 | 0.5 (≈ 1.35 µM) | < 0.125 | 0.25 (≈ 0.675 µM) | 0.5 (≈ 1.35 µM) | – | – |
| Fc1ccc2cc(C3=NC(Cn4cncn4)(c4ccccc4)CO3)sc2c1 (stereo not drawn) | 0.25 (≈ 0.661 µM) | 1 (≈ 2.64 µM) | 4 (≈ 10.6 µM) | 4 (≈ 10.6 µM) | 2 (≈ 5.28 µM) | – | – |
| Fc1ccc2sc(C3=NC(Cn4cncn4)(c4ccccc4)CO3)cc2c1 (stereo not drawn) | 1 (≈ 2.64 µM) | > 16 | > 16 | 16 (≈ 42.3 µM) | 1 (≈ 2.64 µM) | – | – |
| O=C(Nc1ccc(C2=NC(Cn3cncn3)(c3ccccc3)CO2)cc1)c1ccccc1 (stereo not drawn) | > 16 | 8 (≈ 18.9 µM) | > 64 | > 64 | > 64 | – | – |
| N#Cc1ccc2cc(C3=NC(Cn4cncn4)(c4ccccc4)CO3)sc2c1 (stereo not drawn) | > 16 | > 16 | > 16 | > 64 | > 64 | – | – |
| c1ccc(-c2cc(C3=NC(Cn4cncn4)(c4ccccc4)CO3)no2)cc1 (stereo not drawn) | > 16 | > 16 | > 64 | > 64 | 2 (≈ 5.39 µM) | – | – |
| c1ccc(C2=NC(Cn3cncn3)(c3ccccc3)CO2)cc1 (stereo not drawn) | > 16 | > 16 | > 64 | > 64 | > 64 | – | – |
| FC(F)(F)c1ccc2cc(C3=NC(Cn4cncn4)(c4ccccc4)CO3)sc2c1 (stereo not drawn) | 0.25 (≈ 0.584 µM) | > 16 | 8 (≈ 18.7 µM) | 16 (≈ 37.3 µM) | > 64 | – | – |
| c1ccc(C2(Cn3cncn3)COC(c3cc4ccccc4s3)=N2)cc1 (stereo not drawn) | 0.25 (≈ 0.694 µM) | 1 (≈ 2.77 µM) | 2 (≈ 5.55 µM) | 0.25 (≈ 0.694 µM) | 1 (≈ 2.77 µM) | – | – |
| c1ccc(C2(Cn3cncn3)COC(c3ccc4ccccc4c3)=N2)cc1 (stereo not drawn) | > 16 | > 16 | > 64 | 1 (≈ 2.82 µM) | 4 (≈ 11.3 µM) | – | – |
| Fc1ccc(C2(Cn3cncn3)COC(c3cc4ccc(Cl)cc4s3)=N2)c(F)c1 (stereo not drawn) | 0.06 (≈ 0.139 µM) | < 0.03 | 0.06 (≈ 0.139 µM) | 0.25 (≈ 0.58 µM) | > 64 | – | – |
| Clc1cccc(C2(Cn3cncn3)COC(c3cc4ccc(Br)cc4s3)=N2)c1 (stereo not drawn) | 0.06 (≈ 0.127 µM) | 0.06 (≈ 0.127 µM) | 0.125 (≈ 0.264 µM) | 0.5 (≈ 1.06 µM) | 16 (≈ 33.8 µM) | – | – |
| Fc1cc(F)cc(C2(Cn3cncn3)COC(c3cc4ccc(Cl)cc4s3)=N2)c1 (stereo not drawn) | 0.06 (≈ 0.139 µM) | 0.06 (≈ 0.139 µM) | 0.125 (≈ 0.29 µM) | 0.25 (≈ 0.58 µM) | > 64 | – | – |
| Brc1ccc2cc(C3=NC(Cn4cncn4)(c4ccccc4)CO3)sc2c1 (stereo not drawn) | < 0.03 | 0.06 (≈ 0.137 µM) | 0.06 (≈ 0.137 µM) | 0.25 (≈ 0.569 µM) | 0.5 (≈ 1.14 µM) | – | – |
| Clc1ccc2cc(C3=NC(Cn4cncn4)(c4ccccc4)CO3)sc2c1 (stereo not drawn) | < 0.03 | 0.06 (≈ 0.152 µM) | 0.06 (≈ 0.152 µM) | 0.25 (≈ 0.633 µM) | 0.5 (≈ 1.27 µM) | – | – |
| FC(F)(F)c1ccc2sc(C3=NC(Cn4cncn4)(c4ccccc4)CO3)cc2c1 (stereo not drawn) | 0.5 (≈ 1.17 µM) | > 16 | > 16 | > 64 | > 64 | – | – |
| Clc1cccc(C2(Cn3cncn3)COC(c3cc4ccc(Cl)cc4s3)=N2)c1 (stereo not drawn) | 0.06 (≈ 0.14 µM) | 0.06 (≈ 0.14 µM) | 0.125 (≈ 0.291 µM) | 0.5 (≈ 1.16 µM) | 16 (≈ 37.3 µM) | – | – |
| CCC(C)n1ncn(-c2ccc(N3CCN(c4ccc(OCC5COC(Cn6cncn6)(c6ccc(Cl)cc6Cl)O5)cc4)CC3)cc2)c1=O (stereo not drawn) [ITRACONAZOLE] | < 0.03 | < 0.03 | < 0.03 | < 0.125 | < 0.125 | – | – |
